Where a name gives a salt, the structure may show the parent alone. Read-outs that look alike come from different tables or passages of the source.

This assay concerns p27 levels in LNCaP-S14 cells. Nature of the assay: p27 immunofluorescence screening assay in LNCaP-S14 cells. Also: test concentration or dose not given here.
Where [1] appears, read: Table 1, compounds showing SMIP activity in the secondary screen, p27-positive cells, cell line not given.
[2] abbreviates: Table 1, standard deviations from plate mean, cell line not given.
Where [3] appears, read: […], p27-positive cells, cell line not given.

As to `Oc1ccc(Cl)cc1Cc1cc(Cl)ccc1O` [Dichlorophene, reference compound], under setting [1], the “% positive” value was determined as 12.27%. Under setting [2], this compound registered a Z score of 5.6065.
Regarding `Cc1cc(Br)ccc1NC(=O)CCCc1c[nH]c2ccccc12` [N-(4-bromo-2-methyl-phenyl)-4-(1H-indol-3-yl)butanamide], the “% positive” value under setting [1] was 30.52%. The Z score under setting [2] is listed as 18.8304.
As to `[H]/N=C(\N/C(=N/[H])NCCCCCCNC(=N)NC(=N)Nc1ccc(Cl)cc1)Nc1ccc(Cl)cc1` [Chlorhexidine hydrochloride, reference compound], the “% positive” value under setting [1] stood at 25.83%. This compound yielded a Z score under setting [2] of 15.4338.
For the compound `Cc1cc2c(C(C)C)c(O)c(O)c(C=O)c2c(O)c1-c1c(C)cc2c(C(C)C)c(O)c(O)c(C=O)c2c1O` [Gossypol, reference compound], the Z score under setting [2] is 3.1932. Also, the “% positive” value under setting [3] is listed as 8.94%.
Regarding `CCCCCCCCCCCCCCCC[N+](C)(C)CCN(Cc1ccc(OC)cc1)c1ncccn1` [Thonzonium, reference compound], the “% positive” value under setting [1] is 9.65%. The Z score under setting [2] was determined as 3.7078.
The matching figures for `COC(=O)Nc1nc2ccc(Sc3ccccc3)cc2[nH]1` [Fenbendazole, reference compound]: 4.46% and −0.0511.
Take `CC[C@@]1(O)C[C@H](O[C@H]2C[C@H](N(C)C)[C@H](O[C@H]3C[C@H](O)[C@H](O[C@H]4CCC(=O)[C@H](C)O4)[C@H](C)O3)[C@H](C)O2)c2c(cc3c(c2O)C(=O)c2c(O)cccc2C3=O)[C@H]1C(=O)OC` [Aclarubicin, reference compound]: the Z score under setting [2] stood at 4.5990. Further, the “% positive” value under setting [3] is given as 10.89%.
With `CCN(CC)CCCC(C)Nc1c2ccc(Cl)cc2nc2ccc(OC)cc12` (stereo not shown) [Quinacrine hydrochloride, reference compound], under setting [1], the “% positive” value is recorded as 36.17%. Under setting [2], the Z score was 22.9232.
Take `[O-][n+]1ccccc1[S-].[O-][n+]1ccccc1[S-].[Zn+2]` [Pyrithione zinc, reference compound]: the “% positive” value was determined as 10.31% and the Z score stood at 4.1877.
Take `Nc1ncn([C@@H]2O[C@H](CO)[C@@H](O)[C@H]2O)c(=O)n1` [5-Azacytidine, reference compound]: under setting [1], the “% positive” value came to 10.87%. Under setting [2], this compound yielded a Z score of 4.5963.
The matching figures for `O=c1cc(-c2ccc(O)c(O)c2)oc2cc(O)cc(O)c12` [Luteolin, reference compound]: 19.15% and 10.5904.
For `O=C(CSC1=NNC(c2ccccn2)S1)c1cccc(F)c1` (stereo not shown) [1-(3-fluorophenyl)-2-[(5-pyridin-2-yl-4,5-dihydro-1,3,4-thiadiazol-2-yl)sulfanyl]ethanone] the same measures were 25.37% and 15.1024.
On to `COc1ccc(S(=O)(=O)N(Cc2ccc(Cl)cc2)Cc2ccc3cc[nH]c3c2)cc1` [N-(4-chlorobenzyl)-N-[((1H)-indol-6-yl)methyl]-4-methoxybenzenesulfonamide], for which the “% positive” value under setting [1] is on record as 9.23%. For the same compound, under setting [2], the Z score was found to be 3.4074.
For `OC(c1cc(C(F)(F)F)nc2c(C(F)(F)F)cccc12)C1CCCCN1` (stereo not shown) [Mefloquine, reference compound] the same measures were 17.66% and 9.5116.
Take `C1CCC(C(CC2CCCCN2)C2CCCCC2)CC1.O=C(O)/C=C\C(=O)O` (stereo not shown) [Perhexilline maleate, reference compound]: the Z score under setting [2] is given as −0.0837. Besides, the “% positive” value under setting [3] is listed as 4.42%.
With `O=C1C=C2C=C[C@@H]3C[C@@]2(O1)[C@H]1CCCCN31` [Securinine, reference compound], the Z score under setting [2] is 7.6953. The “% positive” value under setting [3] is 15.15%.
Regarding `O=C(Nc1ccc([N+](=O)[O-])cc1Cl)c1cc(Cl)ccc1O` [Niclosamide, reference compound], the “% positive” value under setting [1] is on record as 42.32%. The Z score under setting [2] was 27.3834.
Turning to `COc1ccc(S(=O)(=O)Nc2cccc3cc(C(=O)NCc4ccc(Cl)cc4)[nH]c23)cc1` [N-(4-chlorobenzyl)-7-[((4-methoxyphenyl)sulfonyl)amino]-(1H)-indole-2-carboxamide], under setting [1], the “% positive” value was 11.30%. The compound also displayed a Z score under setting [2] of 4.9019.
The matching figures for `COc1ccc2[nH]cc(CCNC(=O)OC[C@@H]3C[C@H]4CC[C@@H]3C4)c2c1` [(1R,2R,4S)-bicyclo[2.2.1]hept-2-ylmethyl[2-(5-methoxy-1H-indol-3-yl)ethyl]carbamate]: 19.39% and 10.7664.
Regarding `C=C(NC(=O)C(=C)NC(=O)c1csc(C2=N[C@@H]3c4csc(n4)[C@H]4NC(=O)c5csc(n5)[C@H]([C@](C)(O)[C@@H](C)O)NC(=O)[C@H]5CSC(=N5)/C(=C/C)NC(=O)[C@H]([C@@H](C)O)NC(=O)c5csc(n5)[C@]3(CC2)NC(=O)[C@H](C)NC(=O)C(=C)NC(=O)[C@H](C)NC(=O)[C@H]([C@@H](C)CC)N[C@@H]2C=Cc3c([C@H](C)O)cc(nc3[C@H]2O)C(=O)O[C@@H]4C)n1)C(N)=O` [Thiostrepton, reference compound], the “% positive” value under setting [1] is 15.09%. The compound further returned a Z score under setting [2] of 7.6485.
The matching figures for `CN(C)c1ccc(O)c2c1C[C@H]1C[C@H]3[C@H](N(C)C)C(O)=C(C(N)=O)C(=O)[C@@]3(O)C(O)=C1C2=O` [Minocycline hydrochloride, reference compound]: 46.17% and 30.1696.
For `Cc1[nH]cnc1-c1ccc(C(F)(F)F)cc1` [5-methyl-4-(4-(trifluoromethyl)phenyl)-(1H)-imidazole] the same measures were 7.89% and 2.4371.
Take `CCN(CC)c1cc(-c2ccc(F)cc2)nc(-c2ccncc2)n1` [N,N-diethyl-6-(4-fluorophenyl)-2-pyridin-4-yl-pyrimidin-4-amine]: the “% positive” value under setting [1] was 4.69%. Besides, the Z score under setting [2] turned out to be 0.1118.
In the case of `CO[C@@H]1C[C@@H](C[C@H]2CC[C@H](C)[C@H]([C@@H](C)C(=O)O)O2)O[C@]2(O[C@](C)([C@H]3CC[C@@](C)([C@@H]4O[C@@H]([C@H]5O[C@@](O)(CO)[C@H](C)C[C@@H]5C)C[C@@H]4C)O3)C[C@H]2C)[C@@H]1C` [Nigericin sodium, reference compound], the “% positive” value under setting [1] worked out at 35.05%. Under setting [2], the Z score came to 22.1153.
The matching figures for `CC[C@@]1(O)C(=O)OCc2c1cc1n(c2=O)Cc2cc3ccccc3nc2-1` [Camptothecin, reference compound]: 37.17% and 23.6514.
The matching figures for `CCOC(=O)c1cc2cccc(NC(=O)c3ccccc3OC(C)=O)c2[nH]1` [7-[(2-acetoxybenzoyl)amino]-1H-indole-2-carboxylic acid, ethyl ester]: 51.60% and 34.1083.
For `CC(C)COCC(CN(Cc1ccccc1)c1ccccc1)N1CCCC1` (stereo not shown) [Bepridil hydrochloride, reference compound] the same measures were 8.54% and 2.9020.
In the case of `Cc1cc(N)c2ccccc2[n+]1CCCCCCCCCC[n+]1c(C)cc(N)c2ccccc21` [Dequalinium chloride, reference compound], the “% positive” value under setting [1] stood at 30.24%. Under setting [2], this compound yielded a Z score of 18.6318.
As for `O=c1c(C(F)(F)F)cccn1CCc1nc(-c2ccccc2)cs1` [1-[2-(4-phenyl-1,3-thiazol-2-yl)ethyl]-3-(trifluoromethyl)pyridin-2(1H)-one], under setting [1], the “% positive” value is listed as 10.24%. The same compound gave a Z score under setting [2] of 4.1344.
Turning to `O=C1C(Cl)=C(N2CCC(C(=O)N3CCOCC3)CC2)C(=O)c2ccccc21` [3-chloro-2-[4-(morpholine-4-carbonyl)-1-piperidyl]naphthalene-1,4-dione], under setting [1], the “% positive” value turned out to be 12.42%. Also, the Z score under setting [2] was determined as 5.7130.
With `OCCN1CCN(CCCN2c3ccccc3Sc3ccc(Cl)cc32)CC1` [Perphenazine, reference compound], the “% positive” value under setting [1] came to 12.07%. The Z score under setting [2] came to 5.4640.
The matching figures for `CC(C)(C)c1cc2cc(NS(=O)(=O)c3ccc(Cl)cc3)ccc2[nH]1` [N-(2-tert-butyl-(1H)-indol-5-yl)-4-chlorobenzenesulfonamide]: 37.42% and 23.8290.
Take `COc1cc(OC)c(CN2CC[C@H](NC(=O)c3ccc(-n4nc(C(C)(C)C)cc4C(C)(C)C)cc3)C2)c(OC)c1` [4-(3,5-di-tert-butyl-1H-pyrazol-1-yl)-N-[(3S)-1-(2,4,6-trimethoxybenzyl)pyrrolidin-3-yl]benzamide]: under setting [1], the “% positive” value amounted to 14.27%. This compound also displayed a Z score under setting [2] of 7.0595.
The matching figures for `CC[C@@H](C(=O)[C@@H](C)[C@@H](O)[C@H](C)CCc1ccc(C)c(O)c1C(=O)O)[C@H]1O[C@](CC)([C@H]2CC[C@](O)(CC)[C@H](C)O2)C[C@@H]1C` [Lasalocid sodium, reference compound]: 45.21% and 29.4743.
The matching figures for `O=C(OCn1ncc(Cl)c(Cl)c1=O)c1ccc(C(F)(F)F)cc1` [(4,5-dichloro-6-oxo-pyridazin-1-yl)methyl-4-(trifluoromethyl)benzoate]: 33.92% and 21.2964.
The matching figures for `CS(=O)(=O)c1ccc(/C=C/C(=O)Nc2cccc(C(F)(F)F)c2)cc1` [3-[4-(methylsulfonyl)phenyl]-N-[3-trifluoromethyl]phenyl]-(2E)-propenamide]: 41.56% and 26.8318.
As to `COc1cc([C@@H]2c3cc4c(cc3[C@@H](O[C@@H]3O[C@@H]5CO[C@@H](C)O[C@H]5[C@H](O)[C@H]3O)[C@H]3COC(=O)[C@H]23)OCO4)cc(OC)c1O` [Etoposide, reference compound], under setting [1], the “% positive” value was 39.92%. The Z score under setting [2] worked out at 25.6406.
For `O=C(OCn1ncc(Cl)c(Cl)c1=O)c1cccc(C(F)(F)F)c1` [(4,5-dichloro-6-oxopyridazin-1(6H)-yl)methyl-3-(trifluoromethyl)benzoate] the same measures were 8.67% and 3.0023.

Values taken from US20090054312A1, “SMIPs: Small molecule inhibitors of p27 depletion in cancers and other proliferative diseases” (priority 2007, published 2009).
